Assay results: patent publication US10124078B2, “Lipid-based nanoparticles” (BOARD OF REGENTS OF THE UNIVERSITY OF HOUSTON SYSTEM, priority 2011, dated 2018)

Tests used:
[1] = biological target: T1, Aβ plaques (Homo sapiens, UniProt P05067); experiment: Ex vivo staining of mouse brain tissue sections (confocal fluorescence), with CG competition; type: binding, APP/PSEN1 transgenic mouse
T1 construct: from tissue; host or cells: brain (cortex and hippocampus) of 5 and 7 month old APP/PSEN1 transgenic mice
T1 sequence (P05067 672-713 limits assumed): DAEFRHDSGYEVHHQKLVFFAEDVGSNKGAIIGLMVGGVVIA
Method: The mice were engineered to progressively develop cortical and hippocampal plaques in an age-related manner similar to that observed in human AD pathology. Saggital sections (30 μm thick) from euthanized non-transgenic (control), 5, and 7 month old APP/PSEN1 mice were incubated in a 3 mM solution of the liposomes (concentration of Me-XO4 in the solution was 1 μM) for 2 h, at RT. This was followed by extensive washing with PBS to remove unbound liposomes. The stained tissues were mounted with […]® mounting media (Vector Laboratories, Inc., Burlingame, Calif.) to reduce background fluorescence and viewed under a confocal microscope.

[2] = biological target: T2, cortical and hippocampal Aβ plaques (Homo sapiens, UniProt P05067); experiment: In vivo delivery to cortical and hippocampal plaques after tail vein injection, confocal microscopy of brain sections; set-up: species or system APP/PSEN1 mice; conditions: 48 h after injection
T2 construct: from tissue; host or cells: brain (cortex and hippocampus) of 5 and 7 month old APP/PSEN1 transgenic mice
T2 sequence (P05067 672-713 limits assumed): as above
Method: 48 h following injection, the mice were euthanized and their brains sectioned for confocal light microscopic studies. Identical mice were injected with molecular/free methoxy-XO4 ligand to serve as a positive control, and with untargeted liposomes and saline as negative controls.

Row | SMILES | competition with Me-XO4-labeled liposomes for Aβ plaque deposits: fluorescence intensity and number of labeled plaques ([1]; 1 μM Me-XO4 and increasing concentrations of CG, cortex and hippocampus) | in vivo staining of plaques (fluorescence of brain sections) ([2]; 5 month old APP/PSEN1 mice) | in vivo staining of plaques (fluorescence of brain sections) ([2]; 7 month old APP/PSEN1 mice) | staining of Aβ plaque deposits on brain sections ([1]; 7 month old APP/PSEN1 mice, 30 μm sagittal sections, 1 μM Me-XO4, 2 h, RT)
1 | O=C(O)c1cc(/N=N/c2ccc(-c3ccc(/N=N/c4ccc(O)c(C(=O)O)c4)cc3)cc2)ccc1O [CG, Chrysamine G] | decrease in fluorescence intensity and the number of labeled plaques | – | – | –
2 | COc1cc(/C=C/c2ccc(O)cc2)ccc1/C=C/c1ccc(O)cc1 [free methoxy-XO4 ligand, methoxy-XO4] | – | no noteworthy fluorescence | bright staining of both cortical and hippocampal plaques | same plaque deposition pattern was observed
